{"source": "patent US9006442B2", "about": "“Cannabinoid receptor modulators” (Lupin Limited, priority 2011, dated 2015)", "key": {"[1]": {"molecular_target": "hCB2 (Homo sapiens, UniProt P34972)", "sequence (P34972 whole entry)": "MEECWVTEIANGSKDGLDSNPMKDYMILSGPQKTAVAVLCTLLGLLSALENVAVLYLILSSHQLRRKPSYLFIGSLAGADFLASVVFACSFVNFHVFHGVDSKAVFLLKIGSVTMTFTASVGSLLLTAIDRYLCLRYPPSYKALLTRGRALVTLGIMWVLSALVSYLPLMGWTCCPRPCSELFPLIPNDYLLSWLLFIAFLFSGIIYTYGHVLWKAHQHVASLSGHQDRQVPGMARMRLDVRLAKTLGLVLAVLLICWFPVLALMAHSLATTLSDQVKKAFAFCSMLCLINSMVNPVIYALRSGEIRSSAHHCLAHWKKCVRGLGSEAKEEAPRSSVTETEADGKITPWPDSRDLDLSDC", "assay": "cAMP determination in functional hCB2-CHO stable cells (HTRF)", "format": "cell-based"}, "[2]": {"system": "rats", "assay": "Chronic constriction injury (CCI)-induced neuropathic pain (Bennett's model), mechanical allodynia, von Frey filaments", "format": "in vivo", "conditions": "CCI of sciatic nerve, mechanical allodynia after 10-15 days, dose 10 mg/kg", "experimental": "Chronic Constriction Injury (CCI)—Induced Neuropathic Pain (Bennett's Model):\nChronic constriction injury (CCI) of sciatic nerve in rats induces mechanical allodynia in this Bennet's neuropathic pain model. Rats were anesthetized using ketamine/xylazine (50/5 mg/kg, i.p.) and the left sciatic nerve was exposed at mid thigh level through a small incision. Four loose ligatures of 4-0 chromic cat gut (Ethicon—Johnson & Johnson) at 1 mm space were placed around the sciatic nerve after the bifurcation of common sciatic nerve. After 10-15 days, mechanical allodynia was assessed by measuring hind paw withdrawal thresholds with von Frey filaments. The 50% paw withdrawal threshold was determined using up and down method of Dixon and as per the Chaplan method."}, "[3]": {"system": "rats", "assay": "FCA-induced inflammatory allodynia, paw withdrawal threshold, von Frey filaments", "format": "in vivo", "conditions": "mechanical allodynia 7 days after FCA injection, dose 10 mg/kg", "experimental": "FCA (Freund's Complete Adjuvant)—Induced Inflammatory Allodynia:\nAn emulsion of Freund's Complete Adjuvant (FCA), containing heat killed Mycobacterium tuberculosis (4 mg/ml) in incomplete Freund's adjuvant and saline (1:1) at a final concentration of 2 mg/ml, when injected (150 μl) into the plantar region of the paw of rats induces an inflammatory pain. Mechanical allodynia (7 days after injection) was assessed by measuring hind paw withdrawal thresholds with von Frey filaments. The 50% paw withdrawal threshold was determined using up and down method of Dixon and as per the Chaplan method."}}, "data": [{"smiles": "Cc1cccc2c(Nc3cccc(C(F)(F)F)c3)ncc(C(=O)N3CC4CC(C3)O4)c12", "note": "[Example-40, 6-Oxa-3-azabicyclo[3.1.1]heptan-3-yl(5-methyl-1-((3-(trifluoromethyl)phenyl)amino)isoquinolin-4-yl)methanone]", "values": [{"measurement": "EC50", "setting": "[1]", "value": "< 10", "unit": "nM"}, {"measurement": "% Improvement (MEAN ± S.E.M.) in Paw withdrawal Threshold, 1 h", "setting": "[2]; 1 h", "value": "21.6 ± 10.6", "unit": "%"}, {"measurement": "% Improvement (MEAN ± S.E.M.) in Paw withdrawal Threshold, 2 h", "setting": "[2]; 2 h", "value": "11.2 ± 2.9", "unit": "%"}, {"measurement": "% Improvement (MEAN ± S.E.M.) in Paw withdrawal Threshold, 1 h", "setting": "[3]; 1 h", "value": "12.8 ± 4.6", "unit": "%"}, {"measurement": "% Improvement (MEAN ± S.E.M.) in Paw withdrawal Threshold, 2 h", "setting": "[3]; 2 h", "value": "13.8 ± 4.5", "unit": "%"}]}]}
